Structures are written as SMILES. Where two headings read alike, the source gives them in different places.

Assay [1] concerns ovarian cancer PDX models. The method, then: A series of ovarian tumors were implanted orthotopically in mice and the resulting patient-derived xenograft (PDX) models were evaluated for niraparib sensitivity by ultrasound imaging. The BRCA status (mutated “BRCAmut” or wild-type “BRCAwt”) of each PDX model was evaluated, with BRCA1/2 variants identified by the test were classified in accordance with the recommendations of the American College of Medical Genetics and Genomics (ACMG) for standards in the interpretation and reporting of sequence variations. HRD scores were also determined for the PDX models as described in Examples 1 & 2.

Assay [2] relates to basal breast cancer (BBC) patient-derived xenograft (PDX) models. The note with it: subset of BBC PDX models; cited from earlier work.
The test system of assay [3] is TNBC patient-derived xenograft (PDX) models. The method, then:
Mice were assigned to homogeneous groups of 10 animals when tumors reached a size of 70-200 mm^3, and were treated with niraparib at 50 mg/kg or 75 mg/kg once a day for 28 days. The compound was delivered by gavage (p.o) under a volume of […] for a 25-g mouse. Tumor volume was evaluated by measuring biweekly tumor diameters with a caliper.

Consider `NC(=O)c1cccc2cn(-c3ccc([C@@H]4CCCNC4)cc3)nc12` [niraparib], for which the Response rate is on record as 31% (8/26) in assay [1] (All models (8/26)), 50% (4/8) in assay [1] (BRCA1/2 deficient models (4/8)) and 50% (4/8) in assay [1] (HRD+ BRCA wt models (4/8)). In addition, the “response of BBC PDX models to single agent treatment” value in assay [2] was “responded robustly”. Further, the “effect on tumor volume” value in assay [3] (T330 model (FIG. 8)) is “regression of tumor volume”. In assay [3] (among 20 tested, 50 mg/kg or 75 mg/kg once a day for 28 days, p.o.), the “number of TNBC PDX models whose growth was significantly inhibited” value stood at 6. The “activity in TNBC PDX models” value in assay [3] (subset of TNBC PDX models) was “robust activity”.

Source of the values: patent publication US20160160294A1, “METHODS AND MATERIALS FOR PREDICTING RESPONSE TO NIRAPARIB” (Tesaro, priority 2014, published 2016).
